In ChEMBL document CHEMBL5724914, “Linking interpersonal differences in gut microbiota composition and drug biotransformation activity” (2024):

Key:
[1] = (§1) The drug is tested on Z-029 corresponding to rat gut metagenome with ENA study accession number: PRJEB37062 and ENA sample accession number: ERS12561828 for biotransformation under anaerobic condition. The drug concentrations were measured over 9 timepoints collected between 0 and 24 hours of incubation by liquid-chromatography-coupled mass spectrometry (LC–MS); conditions: 2 µM
[2] = as §1, with “on Z-024” for “on Z-029”, “to pig” for “to rat”, “number: ERS12561823” for “number: ERS12561828”; conditions: 2 µM
[3] = as §1, with “Z-023” for “Z-029”, “to” for “to rat gut”, “ERS12561822” for “ERS12561828”; conditions: 2 µM
[4] = as §1, with “Z-012” for “Z-029”, “to” for “to rat gut”, “ERS12561812” for “ERS12561828”; conditions: 2 µM
[5] = as §1, with “Z-008” for “Z-029”, “to” for “to rat gut”, “ERS12561808” for “ERS12561828”; conditions: 2 µM
[6] = as §1, with “Z-007” for “Z-029”, “ERS12561807” for “ERS12561828”; conditions: 2 µM
[7] = as §1, with “on Z-003” for “on Z-029”, “to pig” for “to rat”, “number: ERS12561803” for “number: ERS12561828”; conditions: 2 µM
[8] = as §1, with “on WLS-350” for “on Z-029”, “to human” for “to rat”, “number: ERS12561789” for “number: ERS12561828”; conditions: 2 µM
[9] = as §1, with “on WLS-086” for “on Z-029”, “to human” for “to rat”, “number: ERS12561752” for “number: ERS12561828”; conditions: 2 µM
[10] = as §1, with “on WLS-069” for “on Z-029”, “to human” for “to rat”, “number: ERS12561748” for “number: ERS12561828”; conditions: 2 µM
[11] = human gut metagenome, 24 h, 2 µM
[12] = human gut metagenome, 24 h, 2 µM; remark: listed apart in the source
[13] = human gut metagenome, 24 h, 2 µM; remark: listed apart in the source
[14] = human gut metagenome, 24 h, 2 µM; remark: listed apart in the source
[15] = human gut metagenome, 24 h, 2 µM; remark: listed apart in the source
[16] = human gut metagenome, 24 h, 2 µM; remark: listed apart in the source
[17] = human gut metagenome, 24 h, 2 µM; remark: listed apart in the source
[18] = human gut metagenome, 24 h, 2 µM; remark: listed apart in the source
[19] = human gut metagenome, 24 h, 2 µM; remark: listed apart in the source
[20] = human gut metagenome, 24 h, 2 µM; remark: listed apart in the source
Also: call rule not given here.

| Compound | Bacterial Biotransformation [1] | Bacterial Biotransformation [2] | Bacterial Biotransformation [3] | Bacterial Biotransformation [4] | Bacterial Biotransformation [5] | Bacterial Biotransformation [6] | Bacterial Biotransformation [7] | Bacterial Biotransformation [8] | Bacterial Biotransformation [9] | Bacterial Biotransformation [10] | Bacterial Biotransformation [11] | Bacterial Biotransformation [12] | Bacterial Biotransformation [13] | Bacterial Biotransformation [14] | Bacterial Biotransformation [15] | Bacterial Biotransformation [16] | Bacterial Biotransformation [17] | Bacterial Biotransformation [18] | Bacterial Biotransformation [19] | Bacterial Biotransformation [20] |
| --- | --- | --- | --- | --- | --- | --- | --- | --- | --- | --- | --- | --- | --- | --- | --- | --- | --- | --- | --- | --- |
| CC(C)OC(=O)C(C)(C)Oc1ccc(C(=O)c2ccc(Cl)cc2)cc1 [FENOFIBRATE] | Compound NOT metabolized | Compound NOT metabolized | Compound metabolized | Compound metabolized | Compound metabolized | Compound metabolized | Compound metabolized | Compound NOT metabolized | Compound metabolized | Compound NOT metabolized | Compound metabolized | Compound metabolized | Compound metabolized | Compound metabolized | Compound metabolized | Compound NOT metabolized | Compound NOT metabolized | Compound NOT metabolized | Compound metabolized | Compound metabolized |
| O=C1NCC2(CCN(CCc3ccccc3)CC2)O1 [FENSPIRIDE] | Compound NOT metabolized | Compound NOT metabolized | Compound NOT metabolized | Compound NOT metabolized | Compound NOT metabolized | Compound NOT metabolized | Compound NOT metabolized | Compound NOT metabolized | Compound metabolized | Compound NOT metabolized | Compound NOT metabolized | Compound NOT metabolized | Compound NOT metabolized | Compound NOT metabolized | Compound NOT metabolized | Compound NOT metabolized | Compound NOT metabolized | Compound NOT metabolized | Compound NOT metabolized | Compound NOT metabolized |
| OC(Cn1cncn1)(Cn1cncn1)c1ccc(F)cc1F [FLUCONAZOLE] | Compound NOT metabolized | Compound metabolized | Compound metabolized | Compound NOT metabolized | Compound NOT metabolized | Compound NOT metabolized | Compound metabolized | Compound metabolized | Compound metabolized | Compound metabolized | Compound NOT metabolized | Compound metabolized | Compound NOT metabolized | Compound NOT metabolized | Compound metabolized | Compound NOT metabolized | Compound NOT metabolized | Compound NOT metabolized | Compound metabolized | Compound NOT metabolized |
| CNCCC(Oc1ccc(C(F)(F)F)cc1)c1ccccc1 (stereo not given) [FLUOXETINE] | Compound NOT metabolized | Compound NOT metabolized | Compound NOT metabolized | Compound NOT metabolized | Compound NOT metabolized | Compound NOT metabolized | Compound NOT metabolized | Compound NOT metabolized | Compound NOT metabolized | Compound NOT metabolized | Compound NOT metabolized | Compound NOT metabolized | Compound metabolized | Compound NOT metabolized | Compound NOT metabolized | Compound NOT metabolized | Compound NOT metabolized | Compound NOT metabolized | Compound NOT metabolized | Compound NOT metabolized |
| O=C(CCCN1CCC(O)(c2ccc(Cl)cc2)CC1)c1ccc(F)cc1 [HALOPERIDOL] | Compound NOT metabolized | Compound NOT metabolized | Compound metabolized | Compound NOT metabolized | Compound NOT metabolized | Compound NOT metabolized | Compound metabolized | Compound NOT metabolized | Compound metabolized | Compound metabolized | Compound NOT metabolized | Compound NOT metabolized | Compound NOT metabolized | Compound NOT metabolized | Compound NOT metabolized | Compound NOT metabolized | Compound NOT metabolized | Compound NOT metabolized | Compound metabolized | Compound NOT metabolized |
| CCCCC1=NC2(CCCC2)C(=O)N1Cc1ccc(-c2ccccc2-c2nnn[nH]2)cc1 [IRBESARTAN] | Compound NOT metabolized | Compound metabolized | Compound metabolized | Compound NOT metabolized | Compound NOT metabolized | Compound NOT metabolized | Compound metabolized | Compound metabolized | Compound metabolized | Compound metabolized | Compound metabolized | Compound metabolized | Compound NOT metabolized | Compound metabolized | Compound metabolized | Compound NOT metabolized | Compound metabolized | Compound metabolized | Compound metabolized | Compound metabolized |
| NC(CO)(CO)CO.O=C(c1ccccc1)c1ccc2n1CCC2C(=O)O (stereo not given) [KETOROLAC TROMETHAMINE] | Compound metabolized | Compound metabolized | Compound metabolized | Compound NOT metabolized | Compound NOT metabolized | Compound NOT metabolized | Compound metabolized | Compound metabolized | Compound metabolized | Compound metabolized | Compound metabolized | Compound metabolized | Compound metabolized | Compound metabolized | Compound metabolized | Compound NOT metabolized | Compound metabolized | Compound metabolized | Compound metabolized | Compound metabolized |
| CNC(=C[N+](=O)[O-])NCCSCc1csc(CN(C)C)n1 [NIZATIDINE] | Compound NOT metabolized | Compound NOT metabolized | Compound NOT metabolized | Compound NOT metabolized | Compound NOT metabolized | Compound NOT metabolized | Compound NOT metabolized | Compound NOT metabolized | Compound metabolized | Compound metabolized | Compound metabolized | Compound metabolized | Compound metabolized | Compound NOT metabolized | Compound NOT metabolized | Compound NOT metabolized | Compound metabolized | Compound metabolized | Compound NOT metabolized | Compound metabolized |
